Laboratory results from patent US8309551B2, “Pyrazolopyridine, indazole, imidazopyridine, imidazopyrimidine, pyrazolopyrazine and pyrazolopyridine derivatives as stimulators of guanylate cyclase for cardiovascular disorders” (Bayer Intellectual Property GmbH, priority 2006, dated 2012).
Like-named read-outs stand apart in the source and are kept apart here.

Tested on: aorta rings
Assay: Vasorelaxant effect in vitro (phenylephrine-contracted rabbit aorta rings)
Settings: Oryctolagus cuniculus, read-out: IC50 (concentration necessary to reduce the level of contraction by 50%)
Method: B-1. Vasorelaxant Effect in Vitro
Rabbits are stunned by a blow to the back of the neck and are exsanguinated. The aorta is removed, freed of adherent tissue, divided into rings 1.5 mm wide and placed singly in 5 ml organ baths with carbogen-gassed Krebs-Henseleit solution of the following composition (in each case mM): NaCl: 119; KCl: 4.8; CaCl2×2 H2O: 1; MgSO4×7 H2O: 1.4; KH2PO4: 1.2; NaHCO3: 25; glucose: 10, under an initial tension at 37° C. The force of contraction is detected with Statham UC2 cells, amplified and digitized via A/D converters (DAS-1802 HC, Keithley Instruments Munich), and recorded in parallel on chart recorders. A contraction is induced by adding phenylephrine to the bath cumulatively in increasing concentration. After several control cycles, the substance to be investigated is added in each further run in increasing dosage each time, and the level of contraction is compared with the level of contraction achieved in the last preceding run. The concentration necessary to reduce the level of contraction by 50% (IC50) is calculated therefrom. The standard application volume is 5 μl, and the DMSO content in the bath solution corresponds to 0.1%.

[1] = rabbit aorta rings, contraction induced by phenylephrine, 37° C., 0.1% DMSO

Compound	IC50 [1]	IC50
Nc1nc(N)nc(-n2nc(Cc3ccccc3F)c3ncccc32)n1 [Example 1, 6-[3-(2-Fluorobenzyl)-1H-pyrazolo[4,3-b]pyridin-1-yl]-1,3,5-triazine-2,4-diamine]	0.24 µM	–
Nc1nc(N)nc(-n2nc(Cc3ccccc3F)c3ccccc32)n1 [Example 2, 6-[3-(2-Fluorobenzyl)-1H-indazol-1-yl]-1,3,5-triazine-2,4-diamine]	0.3 µM	–
Nc1nc(N)nc(-c2nc(Cc3ccccc3F)n3ccccc23)n1 [Example 3, 6-[3-(2-Fluorobenzyl)imidazo[1,5-a]pyridin-1-yl]-1,3,5-triazine-2,4-diamine]	2.9 µM	–

More lines, now with the values ahead:

IC50 [1]	IC50	Compound
–	0.215 µM	Nc1nc(N)nc(-c2nc(Cc3ccccc3F)c3ncccn23)n1 [Example 4, 6-[8-(2-Fluorobenzyl)imidazo[1,5-a]pyrimidin-6-yl]-1,3,5-triazine-2,4-diamine]
–	1.05 µM	Nc1cc(N)nc(-c2nc(Cc3ccccc3F)c3ncccn23)n1 [Example 7, 2-[8-(2-Fluorobenzyl)imidazo[1,5-a]pyrimidin-6-yl]pyrimidine-4,6-diamine]
